Values quoted from earlier work in patent publication US8703739B2, “Intravascular indwelling catheter lock solution containing weak acid and container containing the same” (priority 2008, dated 2014).
Read-outs that look alike come from different tables or passages of the source.

Compound | Buffer pKa (first pKa) | Buffer pKa (second pKa)
O=C1O[C@H]([C@@H](O)CO)C(O)=C1O [ascorbic acid] | 4.16 | 
O=C(O)CC(O)C(=O)O (stereo not drawn) [malic acid] | 3.23 | 4.77
